In patent US20230143119A1, “PHARMACEUTICAL COMPOSITION FOR PREVENTION OR TREATMENT OF DIABETES AND METABOLIC DISEASES ASSOCIATED THEREWITH” (DONG-A ST CO., LTD., priority 2020, published 2023):

Experiments:
normal mice = assay: Single dose administration in normal mice with oral sucrose loading; format: in vivo, ICR male mice; settings: oral compound 1 3 mg/kg, voglibose 0.02 mg/kg, alone or in combination; sucrose 2 g/kg 30 min later
Description: At a time point of 30 minutes later, sucrose solution was orally loaded at 2 g/kg/10 ml. […] A time-blood glucose level response curve was obtained. In terms of a rate of change, a comparison was made between an area under the time-blood glucose level curve in a control group administered with solvent only and an area under the time-blood glucose level curve in a drug administration group.

DIO mice = assay: 12-week drug-diet admixture in diet-induced obese (DIO) and insulin resistant mice; format: in vivo, C57BL/6J mice; settings: compound 1 100 mg/kg/day, elafibranor 30 mg/kg/day, alone or in combination, 12 weeks
Description: To induce insulin resistance, six-weeks old male C57BL/6J mice were supplied with a special diet of high fat, high fructose and high cholesterol (Research Diets Inc., D09100301) for at least 27 weeks. A drug-diet admixture was prepared so that diet-induced obese (DIO) and insulin resistant mice could be administered with each of compound 1 at 100 mg/kg/day and elafibranor at 30 mg/kg/day as a PPAR agonist alone or in combination. The prepared drug-diet admixture was supplied to mice for 12 weeks. Nonfasting blood glucose level was measured from plasma collected after autopsy at a time point of 12 weeks after drug administration using a Roche's AccuChek Active glucose meter.

HF mice = assay: Three-week administration in high fat diet (HF) insulin resistant mice; format: in vivo, C57BL/6J male mice; settings: for effect of reducing body fat: compound 1 50 mg/kg or metformin 150 mg/kg twice a day alone, body composition analysis by NMR; for blood concentration of total GLP-1 (GLP-1 secretion) / weight loss: compound 1 50 mg/kg, metformin 150 mg/kg, twice a day, alone or co-administered; for blood concentration of total GLP-1 (GLP-1 secretion): three weeks, nonfasting autopsy; for weight loss: two weeks
Description: Four-weeks old C57BL/6J male mice were supplied with a high fat diet (Research Diets Inc., D12492; 60% kcal fat) for ten weeks so as to induce insulin resistance. After acclimatization to drug administration for two weeks, the mice were assigned into each group based on body weight and body fat. Compound 1 was administered alone at 50 mg/kg twice a day to a compound 1 monotherapy group, and metformin was administered alone at 150 mg/kg twice a day to a metformin monotherapy group. The co-administration group was orally co-administered with compound 1 at 50 mg/kg and metformin at 150 mg/kg twice a day for three weeks. […] Fasting blood glucose was measured from whole blood collected from a tail vein after fasting for six hours at the second week of administration using a Roche's AccuChek Active glucose meter.

Row | SMILES | hypoglycemic effect (postprandial blood glucose for two hours after sucrose loading) (normal mice) | hypoglycemic effect (nonfasting blood glucose level) (DIO mice) | effect of reducing body fat (HF mice) | blood concentration of total GLP-1 (GLP-1 secretion) (HF mice) | weight loss (HF mice)
1 | OCC(CO)N[C@H]1C[C@](O)(CO)[C@@H](O)[C@H](O)[C@H]1O [voglibose] | no hypoglycemic effect | – | – | – | –
2 | CCc1cnc(N2CCC(CCCOc3cc(F)c(-c4noc(C(C)C)n4)c(F)c3)CC2)nc1 [compound 1, 3-(4-(3-(1-(5-ethylpyrimidin-2-yl)piperidin-4-yl)propoxy)-2,6-difluorophenyl)-5-isopropyl-1,2,4-oxadiazole] | – | did not exhibit a significant hypoglycemic effect | no effect of reducing body fat | significant increase in GLP-1 secretion was not identified | −4.0%
3 | CN(C)C(=N)N=C(N)N [metformin] | – | – | insignificant effect of reducing body fat | significant increase in GLP-1 secretion was not identified | −4.4%
4 | CSc1ccc(C(=O)/C=C/c2cc(C)c(OC(C)(C)C(=O)O)c(C)c2)cc1 [elafibranor] | – | exhibited a hypoglycemic effect | – | – | –
